Data taken from patent publication US9873709B2 (priority 2013, dated 2018).

Tested on: JAK1-dependent STAT6 phosphorylation downstream of IL-13 stimulation in TF-1 human erythroleukemia cells
Test: cells
Details: TF-1, read-out: IL-13-pSTAT6 IC50
Experimental: Inhibitor potency (EC50) was determined in cell-based assays designed to measure JAK1 dependent STAT phosphorylation.
Prior to use in the assays, TF-1 cells were starved of GM-CSF overnight in OptiMEM medium (Life Technologies, Grand Island, N.Y.) supplemented with 0.5% charcoal/dextran stripped fetal bovine serum (FBS), 0.1 mM non-essential amino acids (NEAA), and 1 mM sodium pyruvate. The assays were run in 384-well plates in serum-free OptiMEM medium using 300,000 cells per well. In a second assay approach, BEAS-2B human bronchial epithelial cells obtained from ATCC were plated at 100,000 cells per well of a 96-well plate one day prior to the experiment. The BEAS-2B assay was run in complete growth medium (bronchial epithelial basal medium plus bulletkit; Lonza; Basel, Switzerland).
Test compounds were serially diluted 1:2 in DMSO and then diluted 1:50 in medium just before use. Diluted compounds were added to the cells, for a final DMSO concentration of 0.2%, and incubated for 30 min (for the TF-1 assay) or 1 hr (for the BEAS-2B assay) at 37° C. Then, cells were stimulated with human recombinant cytokine at their respective EC90 concentrations, as previously determined for each individual lot. […] The resultant samples were frozen in the plates at −80° C. Compound mediated inhibition of STAT6 phosphorylation was measured in the cell lysates using MesoScale Discovery (MSD) technology (Gaithersburg, Md.).

Point of comparison: `CCOC(=O)N1CC=C(c2cccn3nc(Nc4ccc(C(=O)NCc5ccc(C)nc5)cc4)nc23)CC1` [Example 2-245, ethyl 4-[2-[4-[(6-methyl-3-pyridyl)methylcarbamoyl]anilino]-[1,2,4]triazolo[1,5-a]pyridin-8-yl]-3,6-dihydro-2H-pyridine-1-carboxylate], IC50 12.2 nM. Against it:
- CC(=O)N1CC2(C1)CN(C(=O)c1ccc(Nc3nc4c(C5=CCN(C(=O)CCC(F)(F)F)CC5)cccn4n3)cc1)C2 [Example 2-204, 1-[4-[2-[4-(6-acetyl-2,6-diazaspiro[3.3]heptane-2-carbonyl)anilino]-[1,2,4]triazolo[1,5-a]pyridin-8-yl]-3,6-dihydro-2H-pyridin-1-yl]-4,4,4-trifluoro-butan-1-one] — 7.4-fold higher, 89.7 nM
- CN1CC2CN(C(=O)c3ccc(Nc4nc5c(C6=CCN(C(=O)CCC(F)(F)F)CC6)cccn5n4)cc3)CC(C1)O2 [Example 2-205, 4,4,4-trifluoro-1-[4-[2-[4-(7-methyl-9-oxa-3,7-diazabicyclo[3.3.1]nonane-3-carbonyl)anilino]-[1,2,4]triazolo[1,5-a]pyridin-8-yl]-3,6-dihydro-2H-pyridin-1-yl]butan-1-one] — within 1.5-fold, 10 nM
- Cc1cncc(CNC(=O)c2ccc(Nc3nc4c(C5=CCN(C(=O)CCC(F)(F)F)CC5)cccn4n3)cc2)c1 [Example 2-206, N-[(5-methyl-3-pyridyl)methyl]-4-[[8-[1-(4,4,4-trifluorobutanoyl)-3,6-dihydro-2H-pyridin-4-yl]-[1,2,4]triazolo[1,5-a]pyridin-2-yl]amino]benzamide] — 3.6-fold lower, 3.4 nM
- NCC1CN(C(=O)c2ccc(Nc3nc4c(C5=CCN(C(=O)CCC(F)(F)F)CC5)cccn4n3)cc2)C1 [Example 2-207, 1-[4-[2-[4-[3-(aminomethyl)azetidine-1-carbonyl]anilino]-[1,2,4]triazolo[1,5-a]pyridin-8-yl]-3,6-dihydro-2H-pyridin-1-yl]-4,4,4-trifluoro-butan-1-one] — 12-fold higher, 141 nM
- CC1CCN(C2CCN(C(=O)c3ccc(Nc4nc5c(C6=CCN(C(=O)CCC(F)(F)F)CC6)cccn5n4)cc3)CC2)CC1 [Example 2-208, 4,4,4-trifluoro-1-[4-[2-[4-[4-(4-methyl-1-piperidyl)piperidine-1-carbonyl]anilino]-[1,2,4]triazolo[1,5-a]pyridin-8-yl]-3,6-dihydro-2H-pyridin-1-yl]butan-1-one] — 2.8-fold lower, 4.4 nM
- COCCN(C(=O)c1ccc(Nc2nc3c(C4=CCN(C(=O)CCC(F)(F)F)CC4)cccn3n2)cc1)C1CCN(C)CC1 [Example 2-209, N-(2-methoxyethyl)-N-(1-methyl-4-piperidyl)-4-[[8-[1-(4,4,4-trifluorobutanoyl)-3,6-dihydro-2H-pyridin-4-yl]-[1,2,4]triazolo[1,5-a]pyridin-2-yl]amino]benzamide] — 2.5-fold higher, 29.9 nM
- CCN(CC)C1CCN(C(=O)c2ccc(Nc3nc4c(C5=CCN(C(=O)CCC(F)(F)F)CC5)cccn4n3)cc2)C1 (stereo not drawn) [Example 2-211, 1-[4-[2-[4-[3-(diethylamino)pyrrolidine-1-carbonyl]anilino]-[1,2,4]triazolo[1,5-a]pyridin-8-yl]-3,6-dihydro-2H-pyridin-1-yl]-4,4,4-trifluoro-butan-1-one] — 1.7-fold lower, 7.1 nM
- CN(CCc1cccnc1)C(=O)c1ccc(Nc2nc3c(C4=CCN(C(=O)CCC(F)(F)F)CC4)cccn3n2)cc1 [Example 2-212, N-methyl-N-[2-(3-pyridyl)ethyl]-4-[[8-[1-(4,4,4-trifluorobutanoyl)-3,6-dihydro-2H-pyridin-4-yl]-[1,2,4]triazolo[1,5-a]pyridin-2-yl]amino]benzamide] — 1.5-fold lower, 8 nM
- CN1CCCCC1CNC(=O)c1ccc(Nc2nc3c(C4=CCN(C(=O)CCC(F)(F)F)CC4)cccn3n2)cc1 (stereo not drawn) [Example 2-214, N-[(1-methyl-2-piperidyl)methyl]-4-[[8-[1-(4,4,4-trifluorobutanoyl)-3,6-dihydro-2H-pyridin-4-yl]-[1,2,4]triazolo[1,5-a]pyridin-2-yl]amino]benzamide] — 2.2-fold lower, 5.5 nM
- Cc1ccc(C2CCN(C(=O)c3ccc(Nc4nc5c(C6=CCN(C(=O)CCC(F)(F)F)CC6)cccn5n4)cc3)CC2)nc1 [Example 2-215, 4,4,4-trifluoro-1-[4-[2-[4-[4-(5-methyl-2-pyridyl)piperidine-1-carbonyl]anilino]-[1,2,4]triazolo[1,5-a]pyridin-8-yl]-3,6-dihydro-2H-pyridin-1-yl]butan-1-one] — within 1.5-fold, 13.5 nM
- Cc1cccc(CCNC(=O)c2ccc(Nc3nc4c(C5=CCN(C(=O)CCC(F)(F)F)CC5)cccn4n3)cc2)n1 [Example 2-216, N-[2-(6-methyl-2-pyridyl)ethyl]-4-[[8-[1-(4,4,4-trifluorobutanoyl)-3,6-dihydro-2H-pyridin-4-yl]-[1,2,4]triazolo[1,5-a]pyridin-2-yl]amino]benzamide] — 1.6-fold lower, 7.4 nM
- CN(C)c1cc(CC2CCN(C(=O)c3ccc(Nc4nc5c(C6=CCN(C(=O)CCC(F)(F)F)CC6)cccn5n4)cc3)C2)ncn1 (stereo not drawn) [Example 2-217, 1-[4-[2-[4-[3-[[6-(dimethylamino)pyrimidin-4-yl]methyl]pyrrolidine-1-carbonyl]anilino]-[1,2,4]triazolo[1,5-a]pyridin-8-yl]-3,6-dihydro-2H-pyridin-1-yl]-4,4,4-trifluoro-butan-1-one] — within 1.5-fold, 9.5 nM
- Cc1ccc(CC2CCN(C(=O)c3ccc(Nc4nc5c(C6=CCN(C(=O)CCC(F)(F)F)CC6)cccn5n4)cc3)C2)nc1 (stereo not drawn) [Example 2-218, 4,4,4-trifluoro-1-[4-[2-[4-[3-[(5-methyl-2-pyridyl)methyl]pyrrolidine-1-carbonyl]anilino]-[1,2,4]triazolo[1,5-a]pyridin-8-yl]-3,6-dihydro-2H-pyridin-1-yl]butan-1-one] — within 1.5-fold, 15.4 nM
- O=C(NCCc1cccnc1)c1ccc(Nc2nc3c(C4=CCN(C(=O)CCC(F)(F)F)CC4)cccn3n2)cc1 [Example 2-220, N-[2-(3-pyridyl)ethyl]-4-[[8-[1-(4,4,4-trifluorobutanoyl)-3,6-dihydro-2H-pyridin-4-yl]-[1,2,4]triazolo[1,5-a]pyridin-2-yl]amino]benzamide] — 2.1-fold lower, 5.8 nM
- CN1CCC(N(C)C(=O)c2ccc(Nc3nc4c(C5=CCN(C(=O)NCc6ccccc6)CC5)cccn4n3)cc2)CC1 [Example 2-222, N-benzyl-4-[2-[4-[methyl-(1-methyl-4-piperidyl)carbamoyl]anilino]-[1,2,4]triazolo[1,5-a]pyridin-8-yl]-3,6-dihydro-2H-pyridine-1-carboxamide] — 38-fold higher, 468 nM
- CC1CC1C(=O)N1CC=C(c2cccn3nc(Nc4ccc(C(=O)N(C)C5CCN(C)CC5)cc4)nc23)CC1 (stereo not drawn) [Example 2-223, N-methyl-4-[[8-[1-(2-methylcyclopropanecarbonyl)-3,6-dihydro-2H-pyridin-4-yl]-[1,2,4]triazolo[1,5-a]pyridin-2-yl]amino]-N-(1-methyl-4-piperidyl)benzamide] — within 1.5-fold, 17.3 nM
- COC(=O)N1CC=C(c2cccn3nc(Nc4ccc(C(=O)N(C)C5CCN(C)CC5)cc4)nc23)CC1 [Example 2-224, methyl 4-[2-[4-[methyl-(1-methyl-4-piperidyl)carbamoyl]anilino]-[1,2,4]triazolo[1,5-a]pyridin-8-yl]-3,6-dihydro-2H-pyridine-1-carboxylate] — 17-fold higher, 204 nM
- CN1CCC(N(C)C(=O)c2ccc(Nc3nc4c(C5=CCN(C(=O)OCC(F)F)CC5)cccn4n3)cc2)CC1 [Example 2-225, 2,2-difluoroethyl 4-[2-[4-[methyl-(1-methyl-4-piperidyl)carbamoyl]anilino]-[1,2,4]triazolo[1,5-a]pyridin-8-yl]-3,6-dihydro-2H-pyridine-1-carboxylate] — within 1.5-fold, 11.3 nM
- CCOC(=O)N1CC=C(c2cccn3nc(Nc4ccc(C(=O)NCCNC)cc4)nc23)CC1 [Example 2-230, ethyl 4-[2-[4-[2-(methylamino)ethylcarbamoyl]anilino]-[1,2,4]triazolo[1,5-a]pyridin-8-yl]-3,6-dihydro-2H-pyridine-1-carboxylate] — 13-fold higher, 157 nM
- CCOC(=O)N1CC=C(c2cccn3nc(Nc4ccc(C(=O)NC5CCNC5)cc4)nc23)CC1 (stereo not drawn) [Example 2-231, ethyl 4-[2-[4-(pyrrolidin-3-ylcarbamoyl)anilino]-[1,2,4]triazolo[1,5-a]pyridin-8-yl]-3,6-dihydro-2H-pyridine-1-carboxylate] — 22-fold higher, 268 nM
- CCOC(=O)N1CC=C(c2cccn3nc(Nc4ccc(C(=O)N5CCCCC5c5cccnc5)cc4)nc23)CC1 (stereo not drawn) [Example 2-232, ethyl 4-[2-[4-[2-(3-pyridyl)piperidine-1-carbonyl]anilino]-[1,2,4]triazolo[1,5-a]pyridin-8-yl]-3,6-dihydro-2H-pyridine-1-carboxylate] — 24-fold higher, 288 nM
- CCOC(=O)N1CC=C(c2cccn3nc(Nc4ccc(C(=O)N5CCCCC5Cc5ccccn5)cc4)nc23)CC1 (stereo not drawn) [Example 2-235, ethyl 4-[2-[4-[2-(2-pyridylmethyl)piperidine-1-carbonyl]anilino]-[1,2,4]triazolo[1,5-a]pyridin-8-yl]-3,6-dihydro-2H-pyridine-1-carboxylate] — 1.9-fold higher, 23.1 nM
- CCOC(=O)N1CC=C(c2cccn3nc(Nc4ccc(C(=O)N5CCCC(O)(CN6CCCC6)CC5)cc4)nc23)CC1 (stereo not drawn) [Example 2-241, ethyl 4-[2-[4-[4-hydroxy-4-(pyrrolidin-1-ylmethyl)azepane-1-carbonyl]anilino]-[1,2,4]triazolo[1,5-a]pyridin-8-yl]-3,6-dihydro-2H-pyridine-1-carboxylate] — 5.2-fold higher, 63.7 nM
- CCOC(=O)N1CC=C(c2cccn3nc(Nc4ccc(C(=O)N[C@H]5CCCNC5)cc4)nc23)CC1 [Example 2-250, ethyl 4-[2-[4-[[(3S)-3-piperidyl]carbamoyl]anilino]-[1,2,4]triazolo[1,5-a]pyridin-8-yl]-3,6-dihydro-2H-pyridine-1-carboxylate] — 6.3-fold higher, 76.7 nM
- O=C(CCC(F)(F)F)N1CC=C(c2cccn3nc(Nc4ccc(C(=O)N5CCC6(CCCNC6)C5)cc4)nc23)CC1 (stereo not drawn) [Example 2-253, 1-[4-[2-[4-(2,9-diazaspiro[4.5]decane-2-carbonyl)anilino]-[1,2,4]triazolo[1,5-a]pyridin-8-yl]-3,6-dihydro-2H-pyridin-1-yl]-4,4,4-trifluoro-butan-1-one] — 12-fold higher, 151 nM
- O=C(CCC(F)(F)F)N1CC=C(c2cccn3nc(Nc4ccc(C(=O)N5CCOC6(CCNCC6)C5)cc4)nc23)CC1 [Example 2-254, 4,4,4-trifluoro-1-[4-[2-[4-(1-oxa-4,9-diazaspiro[5.5]undecane-4-carbonyl)anilino]-[1,2,4]triazolo[1,5-a]pyridin-8-yl]-3,6-dihydro-2H-pyridin-1-yl]butan-1-one] — 48-fold higher, 588 nM
